# Results as given in PMC7156724, “Potent BRD4 inhibitor suppresses cancer cell-macrophage interaction” (Nature Communications, 2020).
# “And” between values parts separate entries of the source, which are not always exact repeats. Equal entries are not always repeated.
# Biological target: T1, BRD4 (BD1+BD2) (Homo sapiens, UniProt O60885)
# T1 construct: purchased BPS 32612
# Assay: BRD4 (BD1+BD2) TR-FRET binding assay
# Details: Fig.1b; concentration(nM) 0.0339849; replicates
# Text: 2. BRD4 binding assay. The inhibitory effects of NHWD-530, NHWD-540, NHWD- […]
# (BPS, Cat # 32612) per manufacturer’s instructions. […]
row,SMILES,Biochemical activity against BRD4 (BD1 + BD2)
1,Cc1nnn(C)c1-c1cnc2c3cc4c(cc3n([C@H](c3ccccc3)C3CCOCC3)c2c1)CN(C)C4=O [NHWD-540],5.534 and 1.544
2,Cc1nnn(C)c1-c1cnc2c3c4ccn(C)c4ccc3n([C@H](c3ccccc3)C3CCOCC3)c2c1 [NHWD-830],0.8628 and 1.4579
3,Cc1nnn(C)c1-c1cnc2c3cc4c(cc3n([C@H](c3ccccc3)C3CCOCC3)c2c1)C(=O)N(C)C4 [NHWD-530],0.9223 and 6.575
4,Cc1nnn(C)c1-c1cnc2c3c4c(ccc3n([C@H](c3ccccc3)C3CCOCC3)c2c1)C(=O)N(C)C4 [NHWD-560],10.1562 and 13.125

# Same assay, conditions: Fig.1b; concentration(nM) 0.137272; replicates
row,SMILES,Biochemical activity against BRD4 (BD1 + BD2)
1,Cc1nnn(C)c1-c1cnc2c3cc4c(cc3n([C@H](c3ccccc3)C3CCOCC3)c2c1)CN(C)C4=O [NHWD-540],6.278 and 5.237
2,Cc1nnn(C)c1-c1cnc2c3c4ccn(C)c4ccc3n([C@H](c3ccccc3)C3CCOCC3)c2c1 [NHWD-830],6.575 and 2.559
3,Cc1nnn(C)c1-c1cnc2c3cc4c(cc3n([C@H](c3ccccc3)C3CCOCC3)c2c1)C(=O)N(C)C4 [NHWD-530],8.361 and 5.3853
4,Cc1nnn(C)c1-c1cnc2c3c4c(ccc3n([C@H](c3ccccc3)C3CCOCC3)c2c1)C(=O)N(C)C4 [NHWD-560],5 and 10.625

# Same assay, conditions: Fig.1b; concentration(nM) 0.614394; replicates
row,SMILES,Biochemical activity against BRD4 (BD1 + BD2)
1,Cc1nnn(C)c1-c1cnc2c3cc4c(cc3n([C@H](c3ccccc3)C3CCOCC3)c2c1)CN(C)C4=O [NHWD-540],11.7822 and 11.931
2,Cc1nnn(C)c1-c1cnc2c3c4ccn(C)c4ccc3n([C@H](c3ccccc3)C3CCOCC3)c2c1 [NHWD-830],10.2946 and 5.683
3,Cc1nnn(C)c1-c1cnc2c3cc4c(cc3n([C@H](c3ccccc3)C3CCOCC3)c2c1)C(=O)N(C)C4 [NHWD-530],7.766 and 14.6266
4,Cc1nnn(C)c1-c1cnc2c3c4c(ccc3n([C@H](c3ccccc3)C3CCOCC3)c2c1)C(=O)N(C)C4 [NHWD-560],14.5312 and 15.4688

# Same assay, conditions: Fig.1b; concentration(nM) 1.09152; replicates
row,SMILES,Biochemical activity against BRD4 (BD1 + BD2)
1,Cc1nnn(C)c1-c1cnc2c3cc4c(cc3n([C@H](c3ccccc3)C3CCOCC3)c2c1)CN(C)C4=O [NHWD-540],36.626 and 29.039
2,Cc1nnn(C)c1-c1cnc2c3c4ccn(C)c4ccc3n([C@H](c3ccccc3)C3CCOCC3)c2c1 [NHWD-830],69.3038 and 62.4692
3,Cc1nnn(C)c1-c1cnc2c3cc4c(cc3n([C@H](c3ccccc3)C3CCOCC3)c2c1)C(=O)N(C)C4 [NHWD-530],25.6174 and 20.5594
4,Cc1nnn(C)c1-c1cnc2c3c4c(ccc3n([C@H](c3ccccc3)C3CCOCC3)c2c1)C(=O)N(C)C4 [NHWD-560],33.5938 and 32.5

# Same assay, conditions: Fig.1b; concentration(nM) 1.56864; replicates
row,SMILES,Biochemical activity against BRD4 (BD1 + BD2)
1,Cc1nnn(C)c1-c1cnc2c3cc4c(cc3n([C@H](c3ccccc3)C3CCOCC3)c2c1)CN(C)C4=O [NHWD-540],74.1149 and 79.0241
2,Cc1nnn(C)c1-c1cnc2c3c4ccn(C)c4ccc3n([C@H](c3ccccc3)C3CCOCC3)c2c1 [NHWD-830],79.3216 and 83.6358
3,Cc1nnn(C)c1-c1cnc2c3cc4c(cc3n([C@H](c3ccccc3)C3CCOCC3)c2c1)C(=O)N(C)C4 [NHWD-530],58.197
4,Cc1nnn(C)c1-c1cnc2c3c4c(ccc3n([C@H](c3ccccc3)C3CCOCC3)c2c1)C(=O)N(C)C4 [NHWD-560],66.25 and 68.125

# Same assay, conditions: Fig.1b; concentration(nM) 2.04576; replicates
row,SMILES,Biochemical activity against BRD4 (BD1 + BD2)
1,Cc1nnn(C)c1-c1cnc2c3cc4c(cc3n([C@H](c3ccccc3)C3CCOCC3)c2c1)CN(C)C4=O [NHWD-540],94.7932 and 97.1735
2,Cc1nnn(C)c1-c1cnc2c3c4ccn(C)c4ccc3n([C@H](c3ccccc3)C3CCOCC3)c2c1 [NHWD-830],95.8346 and 94.942
3,Cc1nnn(C)c1-c1cnc2c3cc4c(cc3n([C@H](c3ccccc3)C3CCOCC3)c2c1)C(=O)N(C)C4 [NHWD-530],88.9914 and 87.355
4,Cc1nnn(C)c1-c1cnc2c3c4c(ccc3n([C@H](c3ccccc3)C3CCOCC3)c2c1)C(=O)N(C)C4 [NHWD-560],95.625 and 95

# Same assay, conditions: Fig.1b; concentration(nM) 2.52288; replicates
row,SMILES,Biochemical activity against BRD4 (BD1 + BD2)
1,Cc1nnn(C)c1-c1cnc2c3cc4c(cc3n([C@H](c3ccccc3)C3CCOCC3)c2c1)CN(C)C4=O [NHWD-540],100.446 and 100.744
2,Cc1nnn(C)c1-c1cnc2c3c4ccn(C)c4ccc3n([C@H](c3ccccc3)C3CCOCC3)c2c1 [NHWD-830],100.744 and 99.5537
3,Cc1nnn(C)c1-c1cnc2c3cc4c(cc3n([C@H](c3ccccc3)C3CCOCC3)c2c1)C(=O)N(C)C4 [NHWD-530],96.1321 and 98.9586
4,Cc1nnn(C)c1-c1cnc2c3c4c(ccc3n([C@H](c3ccccc3)C3CCOCC3)c2c1)C(=O)N(C)C4 [NHWD-560],101.719

# Same assay, conditions: Fig.1b; concentration(nM) 3; replicates
row,SMILES,Biochemical activity against BRD4 (BD1 + BD2)
1,Cc1nnn(C)c1-c1cnc2c3cc4c(cc3n([C@H](c3ccccc3)C3CCOCC3)c2c1)CN(C)C4=O [NHWD-540],101.488 and 101.636
2,Cc1nnn(C)c1-c1cnc2c3c4ccn(C)c4ccc3n([C@H](c3ccccc3)C3CCOCC3)c2c1 [NHWD-830],101.346 and 101.785
3,Cc1nnn(C)c1-c1cnc2c3cc4c(cc3n([C@H](c3ccccc3)C3CCOCC3)c2c1)C(=O)N(C)C4 [NHWD-530],102.231 and 101.636
4,Cc1nnn(C)c1-c1cnc2c3c4c(ccc3n([C@H](c3ccccc3)C3CCOCC3)c2c1)C(=O)N(C)C4 [NHWD-560],102.344 and 102.5

# Same assay, conditions: average IC50; nM; read-out: IC50, biochemical activity against BRD4 (BD1 + BD2)
row,SMILES,IC50
1,Cc1nnn(C)c1-c1cnc2c3cc4c(cc3n([C@H](c3ccccc3)C3CCOCC3)c2c1)CN(C)C4=O [NHWD-540],18.1 nM
2,Cc1nnn(C)c1-c1cnc2c3c4ccn(C)c4ccc3n([C@H](c3ccccc3)C3CCOCC3)c2c1 [NHWD-830],10.2 nM
3,Cc1nnn(C)c1-c1cnc2c3cc4c(cc3n([C@H](c3ccccc3)C3CCOCC3)c2c1)C(=O)N(C)C4 [NHWD-530],28.5 nM
4,Cc1nnn(C)c1-c1cnc2c3c4c(ccc3n([C@H](c3ccccc3)C3CCOCC3)c2c1)C(=O)N(C)C4 [NHWD-560],19.5 nM
